From PubChem BioAssay AID226 (DTP/NCI, 2004)
Where “and” joins values, the source holds several entries; their conditions need not be identical. Equal values may be shown once. Inconclusive results and toxic doses are left out.

System: B6C3F1 mice, intracerebral ependymoblastoma, median survival T/C
Experiment: NCI In Vivo Anticancer Drug Screen. Data for tumor model Ependymoblastoma (intracerebral) in B6C3F1 mice
Conditions: endpoint: median survival time, higher = longer survival
Experimental: The antitumor activity of compounds was measured in mice bearing transplantable tumors. Survival or tumor size were measured and the results are expressed as the measurement made in the treated group (T) divided by the measurement made in the vehicle treated control group (C). The tumor model used in this assay is Ependymoblastoma (intracerebral) in B6C3F1 mice

[1] = dose: 12.5 mg/kg/injection, schedule: Q01DX005 (ip), vehicle: Klucel (hydroxypropylcellulose) (HPC)
[2] = dose: 25.0 mg/kg/injection, schedule: Q01DX005 (ip), vehicle: Klucel (hydroxypropylcellulose) (HPC)
[3] = dose: 50.0 mg/kg/injection, schedule: Q01DX005 (ip), vehicle: Klucel (hydroxypropylcellulose) (HPC)
[4] = dose: 100.0 mg/kg/injection, schedule: Q01DX005 (ip), vehicle: Klucel (hydroxypropylcellulose) (HPC)
[5] = dose: 200.0 mg/kg/injection, schedule: Q01DX005 (ip), vehicle: Klucel (hydroxypropylcellulose) (HPC)
[6] = dose: 400.0 mg/kg/injection, schedule: Q01DX005 (ip), vehicle: Klucel (hydroxypropylcellulose) (HPC)
[7] = dose: 2.0 mg/kg/injection, schedule: Q01DX005 (ip), vehicle: saline

CCCCCCCC(=O)O[C@H]1[C@H]2[C@@H](CC1(C)C)C(=O)[C@]13O[C@H]1C(=O)[C@]1(CO1)[C@]23C
T/C (dose: 0.62 mg/kg/injection, schedule: Q01DX005 (ip), vehicle: Klucel (hydroxypropylcellulose) (HPC)): 107 % of control | T/C (dose: 1.25 mg/kg/injection, schedule: Q01DX005 (ip), vehicle: Klucel (hydroxypropylcellulose) (HPC)): 106 % of control | T/C (dose: 2.5 mg/kg/injection, schedule: Q01DX005 (ip), vehicle: Klucel (hydroxypropylcellulose) (HPC)): 111 % of control | T/C (dose: 5.0 mg/kg/injection, schedule: Q01DX005 (ip), vehicle: Klucel (hydroxypropylcellulose) (HPC)): 110 % of control | T/C (dose: 10.0 mg/kg/injection, schedule: Q01DX005 (ip), vehicle: Klucel (hydroxypropylcellulose) (HPC)): 102 % of control | T/C (dose: 20.0 mg/kg/injection, schedule: Q01DX005 (ip), vehicle: Klucel (hydroxypropylcellulose) (HPC)): 101 % of control

O=C(NCCCl)NCCCl
T/C (dose: 6.25 mg/kg/injection, schedule: Q01DX005 (ip), vehicle: Klucel (hydroxypropylcellulose) (HPC)): 102 % of control and 105 % of control | T/C [1]: 102 % of control and 104 % of control | T/C [2]: 93 % of control and 99 % of control | T/C [3]: 92 % of control and 103 % of control | T/C [4]: 98 % of control and 107 % of control | T/C [5]: 96 % of control and 107 % of control | T/C [6]: 108 % of control and 87 % of control

COC12C(COC(N)=O)C3=C(C(=O)C(C)=C(N)C3=O)N1CC1C2N1C (centres undefined)
T/C (dose: 2.0 mg/kg/injection, schedule: Q01DX005 (ip), vehicle: Klucel (hydroxypropylcellulose) (HPC)): 105 % of control and 110 % of control | T/C (dose: 4.0 mg/kg/injection, schedule: Q01DX005 (ip), vehicle: Klucel (hydroxypropylcellulose) (HPC)): 112 % of control and 114 % of control

O=C(O)C(O)C(O)C(=O)O.[NH-]C1CCCCC1[NH-].[Pt+2] (centres undefined)
T/C (dose: 2.0 mg/kg/injection, schedule: Q01DX005 (ip), vehicle: dextrose): 96 % of control | T/C (dose: 4.0 mg/kg/injection, schedule: Q01DX005 (ip), vehicle: dextrose): 110 % of control

COc1cccc2c1C(=O)c1c(O)c3c(c(O)c1C2=O)C[C@@](O)(/C(C)=N/NC(=O)c1ccccc1)C[C@@H]3OC1CC(N)C(O)C(C)O1 (some centres undefined)
T/C [7]: 97 % of control | T/C (dose: 4.0 mg/kg/injection, schedule: Q01DX005 (ip), vehicle: saline): 95 % of control | T/C (dose: 8.0 mg/kg/injection, schedule: Q01DX005 (ip), vehicle: saline): 98 % of control

COc1cc([C@@H]2c3cc4c(cc3[C@@H](OC3OC5CO[C@@H](c6cccs6)OC5C(O)C3O)[C@H]3COC(=O)[C@H]23)OCO4)cc(OC)c1O (some centres undefined)
T/C (dose: 0.25 mg/kg/injection, schedule: Q01DX005 (ip), vehicle: saline): 103 % of control | T/C (dose: 0.5 mg/kg/injection, schedule: Q01DX005 (ip), vehicle: saline): 90 % of control | T/C (dose: 1.0 mg/kg/injection, schedule: Q12HX006 (ip), vehicle: saline): 92 % of control | T/C [7]: 118 % of control | T/C (dose: 2.0 mg/kg/injection, schedule: Q01DX005 (oral), vehicle: saline): 122 % of control | T/C (dose: 2.0 mg/kg/injection, schedule: Q12HX002 (ip), vehicle: saline): 93 % of control | T/C (dose: 2.0 mg/kg/injection, schedule: Q12HX006 (ip), vehicle: saline): 119 % of control | T/C (dose: 4.0 mg/kg/injection, schedule: Q01DX001 (ip), vehicle: saline): 100 % of control and 105 % of control | T/C (dose: 4.0 mg/kg/injection, schedule: Q01DX005 (oral), vehicle: saline): 124 % of control | T/C (dose: 4.0 mg/kg/injection, schedule: Q12HX002 (ip), vehicle: saline): 93 % of control | T/C (dose: 4.0 mg/kg/injection, schedule: Q12HX006 (ip), vehicle: saline): 119 % of control | T/C (dose: 8.0 mg/kg/injection, schedule: Q01DX001 (ip), vehicle: saline): 110 % of control and 111 % of control and 118 % of control | T/C (dose: 8.0 mg/kg/injection, schedule: Q01DX005 (oral), vehicle: saline): 113 % of control | T/C (dose: 8.0 mg/kg/injection, schedule: Q12HX002 (ip), vehicle: saline): 90 % of control | T/C (dose: 8.0 mg/kg/injection, schedule: Q12HX006 (ip), vehicle: saline): 122 % of control | T/C (dose: 16.0 mg/kg/injection, schedule: Q01DX001 (ip), vehicle: saline): 112 % of control and 115 % of control and 118 % of control | T/C (dose: 16.0 mg/kg/injection, schedule: Q01DX001 (oral), vehicle: saline): 94 % of control and 101 % of control | T/C (dose: 16.0 mg/kg/injection, schedule: Q12HX002 (ip), vehicle: saline): 93 % of control | T/C (dose: 32.0 mg/kg/injection, schedule: Q01DX001 (ip), vehicle: saline): 104 % of control and 109 % of control and 117 % of control | T/C (dose: 32.0 mg/kg/injection, schedule: Q01DX001 (oral), vehicle: saline): 109 % of control and 110 % of control (2×) | T/C (dose: 64.0 mg/kg/injection, schedule: Q01DX001 (oral), vehicle: saline): 104 % of control and 109 % of control and 115 % of control | T/C (dose: 128.0 mg/kg/injection, schedule: Q01DX001 (oral), vehicle: saline): 97 % of control and 109 % of control

Nc1ncn(C2OC(CO)C(O)C2O)c(=O)n1 (centres undefined)
T/C (dose: 0.59 mg/kg/injection, schedule: Q03HX024 (ip), vehicle: saline): 111 % of control | T/C (dose: 0.75 mg/kg/injection, schedule: Q01DX005 (ip), vehicle: saline): 116 % of control | T/C (dose: 1.17 mg/kg/injection, schedule: Q03HX024 (ip), vehicle: saline): 109 % of control | T/C (dose: 1.5 mg/kg/injection, schedule: Q01DX005 (ip), vehicle: saline): 109 % of control | T/C (dose: 2.34 mg/kg/injection, schedule: Q03HX024 (ip), vehicle: saline): 116 % of control | T/C (dose: 3.0 mg/kg/injection, schedule: Q01DX005 (ip), vehicle: saline): 116 % of control | T/C (dose: 9.38 mg/kg/injection, schedule: Q03HX024 (ip), vehicle: saline): 154 % of control

ClC1C(Cl)C(Cl)C(Cl)C(Cl)C1Cl (centres undefined)
T/C [1]: 100 % of control | T/C [2]: 107 % of control and 108 % of control | T/C [3]: 95 % of control and 102 % of control | T/C [4]: 117 % of control and 118 % of control | T/C [5]: 98 % of control and 107 % of control | T/C [6]: 107 % of control

O=NN(CCF)C(=O)NC1CCCCC1
T/C (dose: 5.1 mg/kg/injection, schedule: Q01DX001 (ip), vehicle: other): 106 % of control | T/C (dose: 5.18 mg/kg/injection, schedule: Q01DX005 (ip), vehicle: Klucel (hydroxypropylcellulose) (HPC)): 184 % of control | T/C (dose: 8.64 mg/kg/injection, schedule: Q01DX005 (ip), vehicle: Klucel (hydroxypropylcellulose) (HPC)): 357 % of control | T/C (dose: 10.2 mg/kg/injection, schedule: Q01DX001 (ip), vehicle: other): 123 % of control | T/C (dose: 13.0 mg/kg/injection, schedule: Q01DX001 (ip), vehicle: Klucel (hydroxypropylcellulose) (HPC)): 153 % of control | T/C (dose: 14.4 mg/kg/injection, schedule: Q01DX005 (ip), vehicle: Klucel (hydroxypropylcellulose) (HPC)): 357 % of control | T/C (dose: 20.4 mg/kg/injection, schedule: Q01DX001 (ip), vehicle: other): 160 % of control | T/C (dose: 21.6 mg/kg/injection, schedule: Q01DX001 (ip), vehicle: Klucel (hydroxypropylcellulose) (HPC)): 216 % of control | T/C (dose: 24.0 mg/kg/injection, schedule: Q01DX005 (ip), vehicle: Klucel (hydroxypropylcellulose) (HPC)): 357 % of control | T/C (dose: 36.0 mg/kg/injection, schedule: Q01DX001 (ip), vehicle: Klucel (hydroxypropylcellulose) (HPC)): 363 % of control | T/C (dose: 40.7 mg/kg/injection, schedule: Q01DX001 (ip), vehicle: other): 220 % of control | T/C (dose: 60.0 mg/kg/injection, schedule: Q01DX001 (ip), vehicle: Klucel (hydroxypropylcellulose) (HPC)): 363 % of control | T/C (dose: 81.4 mg/kg/injection, schedule: Q01DX001 (ip), vehicle: other): 331 % of control | T/C (dose: 100.0 mg/kg/injection, schedule: Q01DX001 (ip), vehicle: Klucel (hydroxypropylcellulose) (HPC)): 333 % of control
